In brackets after ≈: the same amount, converted by molar mass.
Assay: Antioxidant activity assessed as DPPH radical scavenging activity at 0.25 mg/ml incubated for 30 mins relative to control
Type: functional
Conditions: not given

Structure (SMILES)	Activity [%]
COc1cc2c(Nc3ccc(O)cc3)c([N+](=O)[O-])cnc2cc1OCCCN1CCC(C)CC1	36

Assay: Antioxidant activity assessed as trolox equivalent of ABTS-radical scavenging activity
Type: functional
Conditions: not given

Structure (SMILES)	Activity [µmol/g]
O=C1CC(c2cccc(N3CCN(c4nc5ccccc5s4)CC3)c2)Oc2ccccc21 (configuration not stated)	464
Cc1cc(N2CCN(c3cccc(C4CC(=O)c5ccccc5O4)c3)CC2)nc(-c2ccccc2O)n1 (configuration not stated)	369
COc1ccc2c(=O)cc(-c3ccc(N4CCN(c5nc6ccccc6s5)CC4)cc3)oc2c1	317

Assay: Antioxidant activity assessed as DPPH radical scavenging activity incubated for 30 mins under dark condition
Type: functional
Conditions: not given

IC50 [µg/mL]	Structure (SMILES)
10.24 (≈ 21.1 µM)	CCn1c(-n2cc(/C=N/NC(N)=S)c(-c3ccc(Cl)cc3)n2)nc2c1c(=O)n(C)c(=O)n2C
5.71 (≈ 8.59 µM)	CCn1c(-n2cc(/C=N/N=c3\[nH]c(-c4ccc(Br)cc4)cs3)c(-c3ccc(Cl)cc3)n2)nc2c1c(=O)n(C)c(=O)n2C
4.89 (≈ 6.64 µM)	CCn1c(-n2cc(/C=N/N=c3/scc(-c4ccc(Br)cc4)n3-c3ccccc3)c(-c3ccc(OC)cc3)n2)nc2c1c(=O)n(C)c(=O)n2C

Assay: Antioxidant activity assessed as DPPH radical scavenging activity at 1 mg/ml incubated for 30 mins relative to control
Type: functional
Conditions: not given

Structure (SMILES)	Activity [%]
COc1cc2c(Nc3ccc(O)cc3)c([N+](=O)[O-])cnc2cc1OCCCN1CCC(C)CC1	84

Assay: Antioxidant activity assessed as trolox equivalent of DPPH radical scavenging activity
Type: functional
Conditions: not given

Structure (SMILES)	Activity [µmol/g]
O=C(N/N=C/c1ccc(O)c(O)c1O)c1cc2ccccc2[nH]1	12800
O=C(N/N=C/c1ccc(O)cc1O)c1cc2ccccc2[nH]1	2000
O=C(N/N=C/c1c(O)cc(O)cc1O)c1cc2ccccc2[nH]1	4190
COc1cccc(/C=N/NC(=O)c2cc3ccccc3[nH]2)c1O	38.7
O=C(N/N=C/c1ccccc1O)c1cc2ccccc2[nH]1	8.71
O=C(N/N=C/c1cc(O)ccc1O)c1cc2ccccc2[nH]1	9960
O=C(N/N=C/c1cc(Br)ccc1O)c1cc2ccccc2[nH]1	14.2

Assay: Antioxidant activity by ORAC-FL method
Type: functional
Parameters: reference not given here
Conditions: not given

Structure (SMILES)	Activity [µmol]
O=c1c2c(F)cccc2[se]n1-c1ccc2cccc(O)c2n1	2.3
O=c1c2cccc(Cl)c2[se]n1-c1ccc2cccc(O)c2n1	0.9
O=c1c2cccc(F)c2[se]n1-c1ccc2cccc(O)c2n1	3.6
O=c1c2c(C(F)(F)F)cccc2[se]n1-c1ccc2cccc(O)c2n1	0.2
O=c1c2cccc(C(F)(F)F)c2[se]n1-c1ccc2cccc(O)c2n1	0.3

Assay: Antioxidant activity assessed as DPPH radical scavenging activity by measuring inhibition rate at 60 ug/ml incubated for 50 mins in dark by UV-Vis spectrophotometric analysis relative to control
Type: functional
Conditions: dose 60.0 µg/ml

Structure (SMILES)	inhibition [%]
Oc1ccc(-c2nc3ccc(N4CCOCC4)cc3[nH]2)cc1O	77
COc1cc(-c2nc3ccc(N4CCOCC4)cc3[nH]2)ccc1O	76.1
COc1cc(-c2nc3ccc(N4CCN(C)CC4)cc3[nH]2)ccc1O	63.6
CN1CCN(c2ccc3nc(-c4ccc(O)c(O)c4)[nH]c3c2)CC1	76.8

Assay: Antioxidant activity assessed as DPPH radical scavenging activity
Type: functional
Conditions: not given

IC50 [µg/mL]	EC50 [µg/mL]	Structure (SMILES)
14.43	–	O=C(c1cc(O)c(O)c(O)c1)c1cc(O)c(Br)cc1O
19.24	–	O=C(c1ccccc1)c1ccc(O)cc1Br
28	–	COc1cc(/C=C/C(=O)CC(=O)/C=C/c2ccc(O)c(OC)c2)ccc1O [CURCUMIN]
13.86	–	Oc1ccc(Cc2cc(O)c(Br)cc2O)cc1
–	13.8 (≈ 38.9 µM)	O=C(/C=C/c1ccc(O)c(O)c1)O[C@@H]1C[C@](O)(C(=O)O)C[C@@H](O)[C@H]1O [CHLOROGENIC ACID]
0.8	–	O=C(O)/C=C/c1ccc(O)c(O)c1 [CAFFEIC ACID]
127.18	–	COc1ccc(-c2nn(-c3ccccc3)cc2/C=C2\SC(=O)N(Cc3ccccc3)C2=O)cc1
0.4	–	O=C(/C=C/c1ccc(O)c(O)c1)O[C@H](Cc1ccc(O)c(O)c1)C(=O)O [ROSMARINIC ACID]
16.44	–	O=C(c1ccc(O)c(O)c1)c1cc(O)c(Br)cc1O
42.5	–	CC1(C)C=Cc2c(C(=O)O)c(O)c3ccccc3c2O1
0.7	–	COC(=O)c1c2c(c3ccccc3c1O)OC(C)(C)C=C2 [MOLLUGIN]
81.12	–	C[C@H]1O[C@H](O[C@H]2[C@H](O)[C@@H](O)[C@@H](O[C@H]3[C@H](O)[C@@H](O)C(O)O[C@@H]3CO)O[C@@H]2CO)[C@H](O)[C@@H](O)[C@@H]1N[C@H]1C=C(CO)[C@@H](O)[C@H](O)[C@H]1O (some centres not stated) [ACARBOSE]
–	13.4 (≈ 37.8 µM)	O=C(/C=C/c1ccc(O)c(O)c1)O[C@@H]1C[C@@](O)(C(=O)O)C[C@@H](O)[C@@H]1O
110.88	–	O=C1S/C(=C\c2cn(-c3ccccc3)nc2-c2ccc(O)cc2)C(=O)N1Cc1ccccc1
20	–	CNc1cc(/C=C/c2cc(/C=C/c3ccc(OCC(N)=O)c(OC)c3)[nH]n2)ccc1OCC(N)=O
100	–	COC(=O)c1c(O)c2ccccc2c2occc12 [FUROMOLLUGIN]
128.55	–	O=C(O)CN1C(=O)S/C(=C\c2cn(-c3ccccc3)nc2-c2ccccc2)C1=O
13.32	–	Oc1cc(Cc2ccccc2)c(O)cc1Br

Same assay, conditions: read-out: IC50

IC50 [nM]	Structure (SMILES)
830	O=C(O)C1CS[C@@H](c2cccc(F)c2F)N1 (some centres not stated)
1220	Cc1ccc([C@H]2NC(C(=O)O)CS2)cc1 (some centres not stated)
1540	O=C(O)C1CS[C@@H](c2ccccc2)N1 (some centres not stated)
1500	COc1ccccc1[C@H]1NC(C(=O)O)CS1 (some centres not stated)
1520	O=C(O)C1CS[C@@H](c2cccc(Cl)c2)N1 (some centres not stated)
930	O=C(O)C1CS[C@@H](c2cccc(Cl)c2Cl)N1 (some centres not stated)

Assay: Antioxidant activity assessed as DPPH radical scavenging activity by measuring inhibition rate relative to control
Type: functional
Parameters: concentration or dose not given beside the values
Conditions: dose or concentration not given here

Structure (SMILES)	inhibition [%]
CSc1nc2nc(N/N=C(\C)c3ccc([N+](=O)[O-])cc3)c3ccccc3n2n1	78
CSc1nc2nc(N/N=C/c3cccnc3)c3ccccc3n2n1	65
CSc1nc2nc(NNC(=S)NC3CCCCC3)c3ccccc3n2n1	91.2
CSc1nc2nc(NN)c3ccccc3n2n1	85.9
C=CCNC(=S)NNc1nc2nc(SC)nn2c2ccccc12	91

Assay: Antioxidant activity assessed as BHT equivalent of DPPH radical scavenging activity
Type: functional
Conditions: not given

Structure (SMILES)	Activity [mg]
O=C(CCc1ccc(O)cc1)c1c(O)cc(O[C@@H]2O[C@H](CO)[C@@H](O)[C@H](O)[C@H]2O)cc1O	0.89
O=C(CCc1ccc(O)cc1)c1c(O)cc(O)cc1O	1.27

Assay: Antioxidant activity assessed as ABTS-radical scavenging activity measured upto 6 mins
Type: functional
Conditions: not given

Structure (SMILES)	Activity [µg/mL]
O=C(/C=C/c1ccc(/C=C/C(=O)c2ccc3c(c2)OCO3)cc1)c1ccc2c(c1)OCO2	220
O=C(/C=C/c1ccc(/C=C/C(=O)c2ccc(Oc3ccccc3)cc2)cc1)c1ccc(Oc2ccccc2)cc1	174
